Columns and labels:
Assay type in all cases: binding
[1] = target: broad panel of kinases (Homo sapiens, UniProt Q8N5S9); conditions: CAMKK1; 1 μM
[2] = target: broad panel of kinases (Homo sapiens, UniProt P52564); conditions: MEK6; 1 μM
[3] = target: broad panel of kinases (Homo sapiens, UniProt Q8IVH8); conditions: MAP4K3; 1 μM
[4] = target: broad panel of kinases (Homo sapiens, UniProt P51817); conditions: PRKX; 1 μM
[5] = target: broad panel of kinases (Homo sapiens, UniProt P80192); conditions: MLK1; 1 μM
[6] = target: broad panel of kinases (Homo sapiens, UniProt P52333); conditions: JAK3(JH1domain-catalytic); 1 μM
[7] = target: broad panel of kinases (Homo sapiens, UniProt P50613); conditions: CDK7; 1 μM
[8] = target: broad panel of kinases (Homo sapiens, UniProt O00506); conditions: YSK1; 1 μM
[9] = target: broad panel of kinases (Homo sapiens, UniProt Q9UEE5); conditions: DRAK1; 1 μM
[10] = target: broad panel of kinases (Homo sapiens, UniProt P36507); conditions: MEK2; 1 μM
[11] = target: broad panel of kinases (Homo sapiens, UniProt P54756); conditions: EPHA5; 1 μM
[12] = target: broad panel of kinases (Homo sapiens, UniProt O14965); conditions: AURKA; 1 μM
[13] = target: broad panel of kinases (Homo sapiens, UniProt Q00537); conditions: PCTK2; 1 μM
[14] = target: broad panel of kinases (Homo sapiens, UniProt P21127); conditions: CDC2L1; 1 μM
[15] = target: broad panel of kinases (Homo sapiens, UniProt P32298); conditions: GRK4; 1 μM
[16] = target: broad panel of kinases (Homo sapiens, UniProt P42336, Q546K); conditions: PIK3CA(Q546K); 1 μM
[17] = target: broad panel of kinases (Homo sapiens, UniProt Q08881); conditions: ITK; 1 μM
[18] = target: broad panel of kinases (Homo sapiens, UniProt Q8NI60); conditions: ADCK3; 1 μM
[19] = target: broad panel of kinases (Homo sapiens, UniProt P36888, K663Q); conditions: FLT3(K663Q); 1 μM
[20] = target: broad panel of kinases (Homo sapiens, UniProt P42679); conditions: CTK; 1 μM
[21] = target: broad panel of kinases (Homo sapiens, UniProt Q86UX6); conditions: YANK3; 1 μM
[22] = target: broad panel of kinases (Homo sapiens, UniProt P49760); conditions: CLK2; 1 μM
[23] = target: broad panel of kinases (Homo sapiens, UniProt P42336, I800L); conditions: PIK3CA(I800L); 1 μM
[24] = target: broad panel of kinases (Homo sapiens, UniProt P51451); conditions: BLK; 1 μM
[25] = target: broad panel of kinases (Homo sapiens, UniProt Q15759); conditions: p38-beta; 1 μM
[26] = target: broad panel of kinases (Homo sapiens, UniProt P78356); conditions: PIP5K2B; 1 μM
[27] = target: broad panel of kinases (Homo sapiens, UniProt Q9BX84); conditions: TRPM6; 1 μM
[28] = target: broad panel of kinases (Homo sapiens, UniProt P09619); conditions: PDGFRB; 1 μM
[29] = target: broad panel of kinases (Homo sapiens, UniProt Q9UIK4); conditions: DAPK2; 1 μM
[30] = target: broad panel of kinases (Homo sapiens, UniProt P00533, L861Q); conditions: EGFR(L861Q); 1 μM
[31] = target: broad panel of kinases (Homo sapiens, UniProt P21802); conditions: FGFR2; 1 μM
[32] = target: broad panel of kinases (Homo sapiens, UniProt P10721, V559D); conditions: KIT(V559D); 1 μM
[33] = target: broad panel of kinases (Homo sapiens, UniProt Q07002); conditions: PCTK3; 1 μM
[34] = target: broad panel of kinases (Homo sapiens, UniProt P49674); conditions: CSNK1E; 1 μM
[35] = target: broad panel of kinases (Homo sapiens, UniProt Q8IYT8); conditions: ULK2; 1 μM
[36] = target: broad panel of kinases (Homo sapiens, UniProt Q13164); conditions: ERK5; 1 μM
[37] = target: broad panel of kinases (Homo sapiens, UniProt Q9H2X6); conditions: HIPK2; 1 μM

Chain of broad panel of kinases (Homo sapiens, UniProt P00533, L861Q) (P00533 25-1210 L861Q limits assumed): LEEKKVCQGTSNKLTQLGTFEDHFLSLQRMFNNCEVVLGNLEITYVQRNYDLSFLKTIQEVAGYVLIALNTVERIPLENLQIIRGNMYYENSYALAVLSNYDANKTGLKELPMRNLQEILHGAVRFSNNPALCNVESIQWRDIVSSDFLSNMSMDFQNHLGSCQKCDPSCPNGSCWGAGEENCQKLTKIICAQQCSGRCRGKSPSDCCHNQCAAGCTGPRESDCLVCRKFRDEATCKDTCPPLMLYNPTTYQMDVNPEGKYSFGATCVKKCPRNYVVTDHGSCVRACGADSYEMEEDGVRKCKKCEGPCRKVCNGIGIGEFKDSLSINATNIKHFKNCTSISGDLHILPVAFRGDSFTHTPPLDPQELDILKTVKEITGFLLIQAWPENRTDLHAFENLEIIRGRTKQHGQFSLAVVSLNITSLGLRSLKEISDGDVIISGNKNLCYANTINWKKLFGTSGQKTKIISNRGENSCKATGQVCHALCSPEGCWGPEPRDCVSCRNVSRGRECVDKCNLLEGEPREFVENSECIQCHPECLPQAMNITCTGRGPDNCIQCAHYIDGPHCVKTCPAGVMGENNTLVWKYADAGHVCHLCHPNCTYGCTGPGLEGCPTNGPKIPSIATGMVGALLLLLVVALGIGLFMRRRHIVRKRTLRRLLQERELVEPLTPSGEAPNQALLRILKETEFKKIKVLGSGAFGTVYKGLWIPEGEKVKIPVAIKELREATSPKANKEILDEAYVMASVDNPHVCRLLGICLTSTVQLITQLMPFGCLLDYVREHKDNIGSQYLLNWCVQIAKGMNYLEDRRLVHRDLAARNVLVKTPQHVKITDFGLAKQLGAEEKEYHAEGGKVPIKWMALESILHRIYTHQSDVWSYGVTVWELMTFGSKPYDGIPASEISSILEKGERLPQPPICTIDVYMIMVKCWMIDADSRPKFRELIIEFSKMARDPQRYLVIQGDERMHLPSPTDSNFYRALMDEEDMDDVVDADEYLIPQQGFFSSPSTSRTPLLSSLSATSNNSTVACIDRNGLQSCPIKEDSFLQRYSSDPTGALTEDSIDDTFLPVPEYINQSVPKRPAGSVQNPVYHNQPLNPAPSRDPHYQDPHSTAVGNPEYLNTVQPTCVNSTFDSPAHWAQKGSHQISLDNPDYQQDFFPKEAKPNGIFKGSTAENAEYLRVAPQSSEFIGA
Chain of broad panel of kinases (Homo sapiens, UniProt P21802) (P21802 22-821 limits assumed): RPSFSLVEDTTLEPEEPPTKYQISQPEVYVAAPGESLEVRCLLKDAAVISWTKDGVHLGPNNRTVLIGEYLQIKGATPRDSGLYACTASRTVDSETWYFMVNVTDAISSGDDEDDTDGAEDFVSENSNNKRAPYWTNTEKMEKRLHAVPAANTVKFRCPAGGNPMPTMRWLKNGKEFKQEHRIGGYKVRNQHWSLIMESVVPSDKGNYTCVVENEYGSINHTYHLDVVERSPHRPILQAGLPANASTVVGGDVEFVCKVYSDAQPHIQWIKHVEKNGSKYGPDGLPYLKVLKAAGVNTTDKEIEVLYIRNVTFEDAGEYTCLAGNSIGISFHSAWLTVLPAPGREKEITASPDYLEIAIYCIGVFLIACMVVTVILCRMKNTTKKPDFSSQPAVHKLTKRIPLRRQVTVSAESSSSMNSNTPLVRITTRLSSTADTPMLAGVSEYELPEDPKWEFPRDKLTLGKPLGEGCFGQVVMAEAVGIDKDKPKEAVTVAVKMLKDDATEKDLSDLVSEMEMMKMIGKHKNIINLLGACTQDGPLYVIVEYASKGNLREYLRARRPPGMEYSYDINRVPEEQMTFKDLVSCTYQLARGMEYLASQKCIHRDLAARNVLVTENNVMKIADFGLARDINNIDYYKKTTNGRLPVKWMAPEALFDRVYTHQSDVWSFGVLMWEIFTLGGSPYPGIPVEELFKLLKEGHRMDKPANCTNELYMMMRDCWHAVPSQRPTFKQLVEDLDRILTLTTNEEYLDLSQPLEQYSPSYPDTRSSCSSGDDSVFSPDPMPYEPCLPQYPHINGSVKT
Chain of broad panel of kinases (Homo sapiens, UniProt P51451) (P51451 2-505 limits assumed): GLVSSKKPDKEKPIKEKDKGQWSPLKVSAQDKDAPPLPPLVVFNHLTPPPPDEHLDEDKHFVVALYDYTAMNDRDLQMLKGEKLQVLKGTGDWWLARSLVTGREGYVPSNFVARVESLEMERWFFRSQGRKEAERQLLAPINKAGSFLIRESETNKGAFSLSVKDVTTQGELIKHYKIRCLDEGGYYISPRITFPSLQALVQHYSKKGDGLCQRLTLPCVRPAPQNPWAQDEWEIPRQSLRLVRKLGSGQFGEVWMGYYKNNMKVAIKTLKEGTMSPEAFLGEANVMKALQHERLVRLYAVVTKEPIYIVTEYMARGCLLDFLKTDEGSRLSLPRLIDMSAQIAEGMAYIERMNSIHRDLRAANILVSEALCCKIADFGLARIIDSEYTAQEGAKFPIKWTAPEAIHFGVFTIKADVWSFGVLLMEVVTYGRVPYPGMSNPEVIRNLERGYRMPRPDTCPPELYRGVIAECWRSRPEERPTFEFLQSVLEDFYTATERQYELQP
Chain of broad panel of kinases (Homo sapiens, UniProt P50613) (P50613 2-346 limits assumed): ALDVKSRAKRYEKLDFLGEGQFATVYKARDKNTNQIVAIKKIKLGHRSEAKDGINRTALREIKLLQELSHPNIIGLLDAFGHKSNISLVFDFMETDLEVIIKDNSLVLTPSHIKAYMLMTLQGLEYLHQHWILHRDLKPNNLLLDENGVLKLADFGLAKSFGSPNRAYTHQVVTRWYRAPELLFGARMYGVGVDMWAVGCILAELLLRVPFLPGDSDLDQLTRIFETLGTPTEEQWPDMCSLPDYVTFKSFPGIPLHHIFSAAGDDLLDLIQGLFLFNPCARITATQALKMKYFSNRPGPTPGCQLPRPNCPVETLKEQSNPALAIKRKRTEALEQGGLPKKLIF
Chain of broad panel of kinases (Homo sapiens, UniProt P10721, V559D) (P10721 26-976 V559D limits assumed): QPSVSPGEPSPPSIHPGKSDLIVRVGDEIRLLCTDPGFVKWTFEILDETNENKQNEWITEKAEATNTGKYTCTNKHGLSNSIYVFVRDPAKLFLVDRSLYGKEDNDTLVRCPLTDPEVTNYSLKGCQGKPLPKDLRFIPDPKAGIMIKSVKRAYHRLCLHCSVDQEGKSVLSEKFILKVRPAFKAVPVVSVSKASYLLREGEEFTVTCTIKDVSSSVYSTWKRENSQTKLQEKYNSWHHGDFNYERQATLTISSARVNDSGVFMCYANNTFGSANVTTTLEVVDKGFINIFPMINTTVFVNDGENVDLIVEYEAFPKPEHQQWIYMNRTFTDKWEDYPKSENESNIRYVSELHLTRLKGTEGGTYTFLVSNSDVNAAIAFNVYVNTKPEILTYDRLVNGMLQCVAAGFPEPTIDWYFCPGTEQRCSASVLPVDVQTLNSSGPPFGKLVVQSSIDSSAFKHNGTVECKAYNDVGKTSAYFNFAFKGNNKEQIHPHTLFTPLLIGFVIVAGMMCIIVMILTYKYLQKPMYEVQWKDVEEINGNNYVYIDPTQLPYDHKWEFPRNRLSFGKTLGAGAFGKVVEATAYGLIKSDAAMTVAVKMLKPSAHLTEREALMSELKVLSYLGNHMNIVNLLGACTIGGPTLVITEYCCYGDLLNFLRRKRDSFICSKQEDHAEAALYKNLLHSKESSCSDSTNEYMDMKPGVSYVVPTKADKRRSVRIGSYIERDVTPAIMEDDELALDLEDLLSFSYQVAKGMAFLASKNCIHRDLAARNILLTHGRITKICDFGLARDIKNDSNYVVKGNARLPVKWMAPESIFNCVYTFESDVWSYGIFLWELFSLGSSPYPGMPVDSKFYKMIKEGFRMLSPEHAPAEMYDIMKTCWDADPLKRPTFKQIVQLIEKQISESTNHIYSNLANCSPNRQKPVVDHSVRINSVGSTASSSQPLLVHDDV
Chain of broad panel of kinases (Homo sapiens, UniProt P54756) (P54756 25-1037 limits assumed): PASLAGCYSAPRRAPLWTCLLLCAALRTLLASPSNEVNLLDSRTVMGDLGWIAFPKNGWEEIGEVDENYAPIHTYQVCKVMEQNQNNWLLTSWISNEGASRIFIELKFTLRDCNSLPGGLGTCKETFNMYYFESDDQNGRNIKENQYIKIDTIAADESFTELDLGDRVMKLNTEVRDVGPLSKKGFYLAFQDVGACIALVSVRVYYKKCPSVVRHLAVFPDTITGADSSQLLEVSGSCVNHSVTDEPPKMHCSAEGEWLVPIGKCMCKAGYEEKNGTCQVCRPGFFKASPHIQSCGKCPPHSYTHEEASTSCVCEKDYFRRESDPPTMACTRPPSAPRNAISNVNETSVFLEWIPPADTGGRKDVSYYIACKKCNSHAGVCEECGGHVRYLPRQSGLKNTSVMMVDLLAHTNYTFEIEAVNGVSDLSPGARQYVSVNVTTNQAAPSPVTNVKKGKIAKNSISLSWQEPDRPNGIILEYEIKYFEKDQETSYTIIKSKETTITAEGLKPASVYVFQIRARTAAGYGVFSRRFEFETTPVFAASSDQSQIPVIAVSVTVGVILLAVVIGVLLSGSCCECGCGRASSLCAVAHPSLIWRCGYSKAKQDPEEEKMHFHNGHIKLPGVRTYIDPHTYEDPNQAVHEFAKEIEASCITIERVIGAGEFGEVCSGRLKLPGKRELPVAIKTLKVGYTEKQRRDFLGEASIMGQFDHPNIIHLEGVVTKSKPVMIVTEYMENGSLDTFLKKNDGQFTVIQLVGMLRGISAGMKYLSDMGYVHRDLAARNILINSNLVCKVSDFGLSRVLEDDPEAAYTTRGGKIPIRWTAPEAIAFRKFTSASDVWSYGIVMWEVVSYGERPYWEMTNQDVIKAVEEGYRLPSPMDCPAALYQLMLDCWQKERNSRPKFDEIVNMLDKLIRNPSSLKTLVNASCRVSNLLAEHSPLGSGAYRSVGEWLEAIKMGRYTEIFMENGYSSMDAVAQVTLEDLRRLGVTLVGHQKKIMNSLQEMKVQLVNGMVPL

SMILES | percent of control binding remaining (lower = stronger binding) [1] | percent of control binding remaining (lower = stronger binding) [2] | percent of control binding remaining (lower = stronger binding) [3] | percent of control binding remaining (lower = stronger binding) [4] | percent of control binding remaining (lower = stronger binding) [5] | percent of control binding remaining (lower = stronger binding) [6] | percent of control binding remaining (lower = stronger binding) [7] | percent of control binding remaining (lower = stronger binding) [8] | percent of control binding remaining (lower = stronger binding) [9] | percent of control binding remaining (lower = stronger binding) [10] | percent of control binding remaining (lower = stronger binding) [11] | percent of control binding remaining (lower = stronger binding) [12] | percent of control binding remaining (lower = stronger binding) [13] | percent of control binding remaining (lower = stronger binding) [14] | percent of control binding remaining (lower = stronger binding) [15] | percent of control binding remaining (lower = stronger binding) [16] | percent of control binding remaining (lower = stronger binding) [17] | percent of control binding remaining (lower = stronger binding) [18] | percent of control binding remaining (lower = stronger binding) [19] | percent of control binding remaining (lower = stronger binding) [20] | further results
C=CC(=O)N1CC[C@H](Nc2nc(CN3CCOCC3)cc(Nc3ncc(C(=O)Nc4c(C)cccc4C)s3)n2)C1 [Example I-2] | 100% | 82% | 100% | 100% | 89% | 0% | 94% | 85% | 100% | 78% | 0.95% | 73% | 100% | 88% | 100% | 83% | 100% | 9.2% | 96% | 67% | percent of control binding remaining (lower = stronger binding) [21]: 83%; percent of control binding remaining (lower = stronger binding) [22]: 100%; percent of control binding remaining (lower = stronger binding) [23]: 76%; percent of control binding remaining (lower = stronger binding) [24]: 0%; percent of control binding remaining (lower = stronger binding) [25]: 62%; percent of control binding remaining (lower = stronger binding) [26]: 98%; percent of control binding remaining (lower = stronger binding) [27]: 61%; percent of control binding remaining (lower = stronger binding) [28]: 0%; percent of control binding remaining (lower = stronger binding) [29]: 86%; percent of control binding remaining (lower = stronger binding) [30]: 1.3%; percent of control binding remaining (lower = stronger binding) [31]: 73%; percent of control binding remaining (lower = stronger binding) [32]: 0%; percent of control binding remaining (lower = stronger binding) [33]: 99%; percent of control binding remaining (lower = stronger binding) [34]: 84%; percent of control binding remaining (lower = stronger binding) [35]: 89%; percent of control binding remaining (lower = stronger binding) [36]: 91%; percent of control binding remaining (lower = stronger binding) [37]: 97%
C=CC(=O)N1CC[C@H](Nc2nccc(Nc3ncc(C(=O)Nc4c(C)cccc4C)s3)n2)C1 [Example I-3] | 97% | 89% | 100% | 100% | 92% | 0% | 94% | 87% | 100% | 100% | 0.85% | 80% | 81% | 78% | 100% | 100% | 98% | 49% | 100% | 81% | percent of control binding remaining (lower = stronger binding) [21]: 91%; percent of control binding remaining (lower = stronger binding) [22]: 96%; percent of control binding remaining (lower = stronger binding) [23]: 89%; percent of control binding remaining (lower = stronger binding) [24]: 0%; percent of control binding remaining (lower = stronger binding) [25]: 63%; percent of control binding remaining (lower = stronger binding) [26]: 100%; percent of control binding remaining (lower = stronger binding) [27]: 63%; % change compared to control [28]: 0%; percent of control binding remaining (lower = stronger binding) [29]: 80%; percent of control binding remaining (lower = stronger binding) [30]: 0.8%; percent of control binding remaining (lower = stronger binding) [31]: 88%; percent of control binding remaining (lower = stronger binding) [32]: 0%; percent of control binding remaining (lower = stronger binding) [33]: 92%; percent of control binding remaining (lower = stronger binding) [34]: 96%; percent of control binding remaining (lower = stronger binding) [35]: 91%; percent of control binding remaining (lower = stronger binding) [36]: 90%; percent of control binding remaining (lower = stronger binding) [37]: 100%

From US10844077B2, “Thiazolyl-containing compounds for treating proliferative diseases” (Dana-Farber Cancer Institute, Inc., priority 2014, dated 2020)
